According to PMC5342526, “Identification of Bisindolylmaleimide IX as a potential agent to treat drug-resistant BCR-ABL positive leukemia” (Oncotarget, 2016):
Read-outs that look alike come from different tables or passages of the source.

Legend:
[1] = tested on: p53 in HCT116 cells; experiment: p53 protein level by western blot; format: cell-based, human; conditions: HCT116, 2.5 μM, time-dependent
[2] = tested on: Vector BaF3 cells; experiment: Wst-1 cell survival assay; format: cell-based, murine; conditions: Mus musculus, Vector BaF3, 24 hrs
Source text: The reference wavelength was 630 nm.

[3] = tested on: DNA topoisomerase; experiment: in vitro DNA relaxation reaction with BaF3 cell lysates; format: biochemical, murine; conditions: 0, 2, 4 or 8 μM, pBluescript
Procedure: Figure 1 Identification of Bisindolylmaleimide IX as a genotoxic agent and a topoisomerase inhibitor A. The structures of Bisindolylmaleimide IX. B. Bisindolylmaleimide IX induced p53 expression in MEFs and HCT116 cells. Upper panel: primary MEFs were treated with 2.5 μM Bisindolylmaleimide IX for different periods of time and the cells were collected. The levels of p53 were determined by western blot. Bottom panel: HCT116 cells were treated with 2.5 μM Bisindolylmaleimide IX for different periods of time and the cells were collected. The levels of p53 were determined by western blot. C. Bisindolylmaleimide IX induced formation of DNA damage foci for γH2AX and p-Atm in MEFs. Primary MEFs were pretreated with caffeine or solvent for 2 hrs and then with 2.5 μM of Bisindolylmaleimide IX, Bisindolylmaleimide I, or Enzastaurin for 4 more hrs. γH2AX and p-Atm were detected with immunofluorescent staining using specific antibodies. D. Bisindolylmaleimide IX inhibited the topoisomerase activity assayed with pBluescript. DNA samples of pBluescript were incubated with cell lysates of MEFs, which were treated with 0, 4 or 8 μM Bisindolylmaleimide IX before being harvested. DNA samples were analyzed on agarose gels. […] DNA samples of pBluescript were incubated with cell lysates of BaF3 in the presence of 0, 2, 4 or 8 μM Bisindolylmaleimide IX. DNA samples were analyzed on agarose gels. […]

[4] = tested on: MEFs and HCT116 cells; experiment: Activation of Atm and Chk2 (DNA damage response), western blot; format: cell-based; conditions: 4 hrs, phosphorylation of Atm and Chk2
[5] = tested on: B-Raf in BCR-ABL positive BaF3 cells; experiment: B-Raf phosphorylation, western blot; format: cell-based, murine
Procedure: Activation and expression of Erk, Mek1, and Raf were determined by western blot. B. Inhibition of Erk decreased the cell survival rates in BaF3 cells expressing BCR-ABL compared to control cells. […] C. […] N=3. Right panel: Western blot results showing that B-Raf was knocked down in these cells.

[6] = tested on: intravenously injected T315I BCR-ABL positive BaF3 cells; experiment: Lifespan of nude mice after intravenous cell injection; format: in vivo, mouse; conditions: 2 or 4 mg/kg every day
Procedure: For solid tumor models, the mice were injected with 4 mg / kg of Bisindolylmaleimide IX or solvent. The length (L) and width (W) of the tumor were measured by a digital caliper and expressed as tumor volume (0.5 L×W^2, mm^3). The body weight and the lifespan of the mice with intravenous injection of BaF3 cells were monitored every day. For B-Raf knockdown, lentivirus-mediated expressing shRNA against B-Raf was used.

[7] = tested on: K562 cells; experiment: Wst-1 cell survival assay; conditions: for IC50: Homo sapiens, read-out: IC50, cell survival
Procedure: We then evaluated the cytotoxic effect of Bisindolylmaleimide IX in MEFs and HCT116 cells. Different doses of Bisindolylmaleimide IX were applied to the cell cultures and cell survival rates and IC50 were determined with Wst-1 assay.
To measure cell survival rates after Bisindolylmaleimide IX treatment, cells were plated at 1×10^4 in 96 well plates and cultured for overnight, which were then treated with Bisindolylmaleimide IX for 48 hrs. Cell proliferation reagent WST-1 (Roche) was added to each well and was further incubated for 4 hrs at 37°C. The absorbance was measured against a control using microplate reader at 440 nm. The reference wavelength was 630 nm.

[8] = tested on: tumors derived from HCT116; experiment: HCT116 carcinoma xenograft in nude mice; format: in vivo, mouse; conditions: 10 mg/kg for 7 days
Procedure: Male BALB/cASlac-nude mice (4-week-old) were purchased from Shanghai Slac Laboratory Animal C. LTD. The mice were kept in the SPF mouse facility for 1 week before being inoculated with HCT116 cells. HCT116 cells were harvested by trypsinization, counted and resuspended in PBS at the concentration of 5×10^7/ml. We injected subcutaneously 3×10^6 cells to BALB/cASlac nude mice's back. After 2 weeks, the mice were divided into 3 groups (6 mice per group) and were treated with 5-Iodotubercidin (Itu), Bisindolylmaleimide IX or solvent (PBS). The mice were weighed and the size of tumor measured. The length (L) and width (W) of the tumor were measured with a digital caliper and expressed as tumor volume (0.5L×W^2, mm^3).

[9] = Precipitation in cell cultures; format: physicochemical

For `CS(=O)(=O)O.Cn1cc(C2=C(c3cn(CCCSC(=N)N)c4ccccc34)C(=O)NC2=O)c2ccccc21` [Bisindolylmaleimide IX, 3-[1-[3-(Amidinothio)propyl]-3-indolyl]-4-(1-methyl-3-indolyl)-1H-pyrrole-2,5-dione methanesulfonate], which p53 expression [1] is on record?
Its p53 expression is “induce p53 expression”.

And the IC50 [2]?
The IC50 was greater than 8 µM.

What about the “topoisomerase activity on addition to the in vitro DNA relaxation reaction” value [3] of the same compound?
The value was “inhibit the topoisomerase activity”.

And the “lowest concentration able to activate the DNA damage response” value [4]?
Its value is 1.0 µM.

And the “phosphorylation of B-Raf” value [5]?
Its value is “inhibited phosphorylation of B-Raf”.

And the “lifespan of the mice” value [6]?
The value was “extend the lifespan”.

What about the IC50 ([7]; K562, 24 h) of the same compound?
Its IC50 is 3.72 µM.

What about the IC50 ([7]; K562, 48 h) of the same compound?
The IC50 was 3.48 µM.

What about the “cytotoxicity (in words)” value ([7]; K562, Wst-1) of the same compound?
The value was “highly sensitive”.

What about the “body weights of the mice” value [8] of the same compound?
The value was “not affected”.

What about the tumor size [8] of the same compound?
The tumor size was “did not go down”.

What about the “concentrations at which the compound seemed to precipitate in cell cultures” value [9] of the same compound?
Its value is “greater than 10 μM”.
